Experimental data as given in ChEMBL document CHEMBL1144231, “Discovery of pyrimidine benzimidazoles as Lck inhibitors: part I” (Bioorg Med Chem Lett, 2008).
pIC50: −log10 of the molar value.

molecular target: Tyrosine-protein kinase Lck (Homo sapiens, UniProt P06239); assay: Inhibition of Lck by lance assay
Sequence (P06239 whole entry): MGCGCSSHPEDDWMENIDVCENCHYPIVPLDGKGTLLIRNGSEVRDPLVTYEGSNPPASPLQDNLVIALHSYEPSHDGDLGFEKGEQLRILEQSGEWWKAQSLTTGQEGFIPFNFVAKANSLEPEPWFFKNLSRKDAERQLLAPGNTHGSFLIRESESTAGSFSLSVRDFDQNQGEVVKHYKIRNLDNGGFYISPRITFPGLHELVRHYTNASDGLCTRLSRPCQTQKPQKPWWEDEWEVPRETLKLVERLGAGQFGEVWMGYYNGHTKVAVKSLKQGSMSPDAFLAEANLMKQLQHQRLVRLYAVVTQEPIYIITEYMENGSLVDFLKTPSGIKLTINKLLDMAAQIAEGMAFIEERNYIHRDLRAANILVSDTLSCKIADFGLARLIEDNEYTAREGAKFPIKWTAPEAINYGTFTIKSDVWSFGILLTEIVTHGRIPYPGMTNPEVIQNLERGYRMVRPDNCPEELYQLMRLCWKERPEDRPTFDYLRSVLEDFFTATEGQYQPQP

`CCN(CC)CCCCNc1cc(-n2c(Nc3c(C)cccc3Cl)nc3ccccc32)ncn1` and `Cc1cccc(Cl)c1Nc1nc2ccccc2n1-c1cc(N)ncn1` are within 0.2 log units of each other in pIC50: 6.10 for the first, 6.29 for the second.

`Cc1cccc(Cl)c1Nc1nc2ccccc2n1-c1cc(NN2CCOCC2)ncn1` and `Cc1cccc(Cl)c1Nc1nc2ccccc2n1-c1cc(N2CCOCC2)ncn1` cannot be ordered by pIC50: < 5.60 for the first, < 5.60 for the second.

Compared with `Cc1cccc(Cl)c1Nc1nc2ccccc2n1-c1cc(Cl)ncn1`, `Cc1cccc(Cl)c1Nc1nc2ccccc2n1-c1ccncn1` is higher in pIC50: < 5.60 for the first, 5.68 for the second.

`Cc1cc(C)c(Nc2nc3ccccc3n2-c2cc(N)ncn2)c(C)c1` and `Cc1cc(C)c(Nc2nc3ccccc3n2-c2cc(N)ncn2)c(Br)c1` are within 0.2 log units of each other in pIC50: 5.75 for the first, 5.87 for the second.

Compared with `Cc1nc(Nc2cc(-n3c(Nc4c(C)cccc4Cl)nc4ccccc43)ncn2)cc(N2CCN(CCO)CC2)n1`, `Cc1nc(NCCN2CCOCC2)cc(Nc2cc(-n3c(Nc4c(C)cccc4Cl)nc4ccccc43)ncn2)n1` is 0.70 log units higher in pIC50: 7.60 for the first, 8.30 for the second.

First: Cc1cccc(Cl)c1Nc1nc2ccccc2n1-c1cc(Nc2cc(CN3CCOCC3)ccn2)ncn1
Second: Cc1cccc(Cl)c1Nc1nc2ccccc2n1-c1cc(Nc2ccc(CCN3CCOCC3)cn2)ncn1
The pIC50 of the first is 0.34 log units higher: 7.85 for the first, 7.51 for the second. The first is the more potent here.

In the case of `Cc1cccc(Cl)c1Nc1nc2ccccc2n1-c1cc(Nc2ncnc(NCCN3CCOCC3)c2C)ncn1`, the pIC50 was 6.92.
